Laboratory results: publication PMC9409992, “Immunosuppressive Cytochalasins from the Mangrove Endophytic Fungus Phomopsis asparagi DHS-48” (Marine Drugs, 2022)
Like-named read-outs stand apart in the source and are kept apart here.

Columns and labels:
[1] = test system: LPS-induced B murine splenic lymphocytes; test: LPS-induced B-cell (splenic lymphocyte) proliferation, CCK-8; type: cell-based, BALB/c mice; details: Mus musculus, 48 h, read-out: IC50 LPS-Induced B-Cell Proliferation
Experimental: (§1) The isolated compounds (1–8) were evaluated for their immunosuppressive activities against the proliferation of ConA-induced T and LPS-induced B murine splenic lymphocytes, according to previously described protocols. […] The cytotoxicity of immunosuppressive Compounds 2 and 4–6 was tested in murine splenocyte cultures for 72 h using the tetrazolium salt-based CCK-8 assay. […] Thus, we selected this particular cytochalasin for the mechanism of action studies.
(§2) Spleen cells were collected from BALB/c mice under aseptic conditions, plated in a 96-well plate at a density of 1.5 × 10^6 cells/well and activated by Con A (5 μg/mL) or LPS (10 μg/mL) in the presence of various concentrations of compounds or cyclosporine A (CsA) at 37 °C and 5% CO2 for 48 h. Then, 20 μL CCK-8 was added to each well, 4 h before the end of the incubation. Absorbance at OD450 was measured on an ELISA reader, and the IC50 value was calculated from the correlation curve between the compound concentration and the OD450.

[2] = test system: ConA-induced T murine splenic lymphocytes; test: ConA-induced T-cell (splenic lymphocyte) proliferation, CCK-8; type: cell-based, BALB/c mice; details: Mus musculus, 48 h, read-out: IC50 ConA-Induced T-Cell Proliferation
Experimental: as §1, §2

[3] = Cytotoxicity / cell viability in normal splenocytes, CCK-8, 72 h; type: cell-based, BALB/c mice; details: BALB/c, mouse, mean ± SD (n = 7), read-out: Cytotoxicity IC50, murine splenocytes
Experimental: as §1
(§3) Cell viability was evaluated using the CCK-8 method. Spleen cells were plated in a 96-well plate at a density of 1.5 × 10^6 cells/well. Then, the cells were incubated with various concentrations of compounds or 0.1% DMSO at 37 °C and 5% CO2 for 72 h. Proliferation was measured using the CCK-8 assay, as described above. Cyclosporin A (CsA) and cytochalasin D were used as positive controls.

NFAT1 dephosphorylation = test: Western blot of ConA-stimulated NFAT1 / NFAT-P in splenocytes; type: cell-based, BALB/c mice; details: 50 μM
Experimental: (§4) The effect of 2 on ConA-stimulated NFAT1 and NFAT-P expression was determined by Western blotting. […] In contrast, in the ConA-stimulated cells in the absence of 2, the dephosphorylated form of NFAT1 was detected, as well as the phosphorylated form. […] After 48 h of stimulation with 5 μg/mL Con A, the fluorescent NFAT1 translocated to the nucleus. […] In addition, 2 formed hydrophobic interactions with residues ILE-436, ILE-474, ARG-477, VAL-490, and VAL-498 and intermolecular interactions with residues THR-126, GLN-127, ASP-313, and PRO-340. Therefore, the immunosuppressive activity of 2 is possibly, at least in part, mediated via CaN/NFAT signaling pathway-regulated Con A-stimulated activation of splenocytes (Figure 7), highlighting its potential for use as an effective noncytotoxic natural immunosuppressant.
Splenocytes were washed with PBS and lysed in PMSF lysate. After centrifugation at 12,000 rpm for 5 min, the protein concentration was determined using a BSA Protein Assay Kit. Protein lysates were separated using 10% sodium dodecyl sulfate–polyacrylamide gel electrophoresis (SDS–PAGE) and transferred to polyvinylidene difluoride (PVDF) membranes. After blocking, the membranes were incubated overnight with the respective primary antibodies against NFAT1, NFAT-P, and β-actin in 5% BSA, and the secondary antibody was horseradish peroxidase (HRP)-conjugated goat anti-rabbit IgG. […]

NFAT1 translocation = test: Immunofluorescence of NFAT1 nuclear translocation in ConA-stimulated splenocytes; type: cell-based, BALB/c mice; details: Con A 5 μg/mL, 48 h
Experimental: as §4
Splenocytes were seeded in a 24-well plate at a density of 5 × 10^6 cells/well, incubated with various concentrations of Compound 2 or CsA, and then activated by culturing with Con A (5 μg/mL) for 48 h. After treatment, the cells were fixed with 4% paraformaldehyde for 30 min, permeabilized in 0.5% Triton X-100 for 15 min, blocked with 5% BSA for 1 h, and then incubated overnight in the respective primary antibody; NFAT1 (D43B1) XP® Rabbit antibody was used at a 1:100 dilution in PBS. The corresponding fluorescent anti-rabbit IgG (H+L) secondary antibody was added for 1 h. […]

IL-2 = IL-2 ELISA of culture supernatants of ConA-stimulated splenocytes; type: cell-based, BALB/c mice
Experimental: as §4
Splenocytes were treated as described in the RT–qPCR section, and then the IL-2 levels in the obtained culture supernatants were measured using an enzyme-linked immunosorbent assay (ELISA) kit, according to the manufacturer’s instructions. Cytokine standard curves were used to calculate the amount of IL-2, and the absorbance of each well was read at OD450 using an ELISA reader.

calcineurin (CN) = calcineurin (CN) (Homo sapiens, UniProt P63098+Q08209); test: CN phosphatase assay (p-NPP substrate, spectrophotometric); type: biochemical; details: 20 mM p-NPP substrate, pH 7.4; read-out: IC50 calcineurin (CN) inhibition
Chain of calcineurin (CN) (P63098 whole entry, other chains not shown): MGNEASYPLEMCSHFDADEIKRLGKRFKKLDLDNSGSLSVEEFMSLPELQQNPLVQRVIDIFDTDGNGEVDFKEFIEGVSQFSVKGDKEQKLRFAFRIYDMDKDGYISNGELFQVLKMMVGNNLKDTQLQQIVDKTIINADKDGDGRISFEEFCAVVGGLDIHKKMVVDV
Experimental: A spectrophotometric assay was used to determine the activities of CN with 20 mM p-nitrophenyl phosphate (p-NPP) as the substrate in 1 mM CaCl2, 0.5 mM MnCl2, 2 mM CaM, 2 mM CNB, 1 mM DTT, 0.1 mg/mL bovine serum albumin (BSA), and 50 mM Tris-HCl (pH 7.4) at 4 °C. The reaction was initiated by the addition of CNA, various concentrations of compounds (6.25, 12.5, 25, 50 or 100 μM) were added, and the solution was preincubated for 10 min at 4 °C. The OD410 value was measured, and the inhibitory concentration (IC50) was calculated. DMSO (2%) was used as a vehicle control. CsA was used as a positive control.

IL-2 mRNA = IL-2 mRNA expression by real-time quantitative PCR in ConA-stimulated splenocytes; type: cell-based, BALB/c mice; details: q-PCR, 48 h
Experimental: as §4
The obtained total RNA (2 µg) was used for cDNA synthesis with a Servicebio®RT First Strand cDNA Synthesis Kit with random primers, according to the manufacturer’s instructions. qPCR was performed ith SYBR Green qPCR Master Mix (High ROX) using ABI StepOne Plus Real-time Detection System and β-actin as internal control. […] The expression levels of genes were normalized to the expression of β-actin mRNA and analyzed using the delta-delta CT method (2^−ΔΔCT).

murine splenocytes = test: Cytotoxicity / cell viability in normal splenocytes, CCK-8, 72 h; type: cell-based, BALB/c mice; details: mean ± SD (n = 7)
Experimental: as §1, §3

C=C1C(C)C2C(Cc3ccccc3)NC(=O)C23C(O)C=CC(C)(O)CC(C)CC=CC3C1O (stereo not drawn) [Compound 7, cytochalasin J]
IC50 ([1]; LPS 10 μg/mL, CCK-8, mean ± SD, three experiments): > 200 µM
IC50 ([2]; Con A 5 μg/mL, CCK-8, mean ± SD, three experiments): > 200 µM

C=C1C(C)C2C(Cc3ccccc3)NC(=O)C23C(OC(C)=O)C2C=C(C)CC(C)CC(O)C2C3C1O (stereo not drawn) [Compound 2, Phomoparagin B]
IC50 [1]: 78.5 ± 1.3 µM
IC50 at 72 h [3]: 111.7 ± 1.1 µM
IC50 [2]: 21.6 ± 1.7 µM
Effect on ConA-stimulated dephosphorylation of NFAT (NFAT1 dephosphorylation): strongly inhibited the dephosphorylation of NFAT
Effect on Con A-stimulated translocation of NFAT1 from cytoplasm to nucleus (NFAT1 translocation): blocked the Con A-stimulated translocation of NFAT1 from the cytoplasm to the nucleus in a dose-dependent manner
IL-2 protein level (secretion) (IL-2): confirmed the effects of 2 at the IL-2 protein level
IC50 (calcineurin (CN)): 17.9 ± 0.4 µM
Transcription level of Con A-stimulated IL-2 mRNA (IL-2 mRNA): decreased with increasing concentrations of 2

C=C1C(C)C2C(Cc3ccccc3)NC(=O)C23C(O)C(O)C2C(C)=CC(C)CC4OC1C3C42 (stereo not drawn) [Compound 5, phomopchalasin B]
IC50 [1]: 154.4 ± 0.4 µM
IC50 at 72 h [3]: 84.4 ± 0.3 µM
IC50 [2]: 31.2 ± 2.5 µM

C=C1C(C)C2C(Cc3ccccc3)NC(=O)C23C(=O)C=CC(C)(O)CC(C)CC=CC3C1O (stereo not drawn) [Compound 8, fragiformin B]
IC50 [1]: > 200 µM
IC50 [2]: > 200 µM

C=C1C(C)C2C(Cc3ccccc3)NC(=O)C23C(OC(C)=O)C=CC(C)(O)CC(C)CC=CC3C1O (stereo not drawn) [Compound 6, cytochalasin H]
IC50 [1]: 103 ± 1.1 µM
IC50 (murine splenocytes): 42.2 ± 1.7 µM
IC50 at 72 h [3]: 42.2 ± 1.7 µM
IC50 [2]: 11.2 ± 0.3 µM

C=C1[C@@H](C)[C@H]2[C@H](Cc3ccccc3)NC(=O)[C@]23[C@H](OC(C)=O)/C=C/[C@@](C)(O)C(=O)[C@@H](C)C/C=C/[C@H]3[C@@H]1O [Cytochalasin D, cytochalasin D, reference compound]
IC50 [3]: 1 µM

C=C1C(C)C2C(Cc3ccccc3)NC(=O)C23C(O)C2C=C(C)CC(C)CC4OC1C3C42 (stereo not drawn) [Compound 1, Phomoparagin A]
IC50 [1]: > 200 µM
IC50 [2]: > 200 µM

C=C1C(C)C2C(Cc3ccccc3)NC(=O)C23C(O)C2C=C(C)CC(C)CC(O)C2C3C1O (stereo not drawn) [Compound 4, phomopchalasin A]
IC50 [1]: 145 ± 2.2 µM
IC50 at 72 h [3]: 373.7 ± 3.3 µM
IC50 [2]: 32.8 ± 2.4 µM

C=C1C(C)C2C(Cc3ccccc3)NC(=O)C23C=C2C=C(C)CC(C)CC(O)C2C3C1O (stereo not drawn) [Compound 3, Phomoparagin C]
IC50 [1]: > 200 µM
IC50 [2]: > 200 µM
